Assay results reported in ChEMBL document CHEMBL6120975 (2024).
The source made the active and inactive calls. No cut-off for these calls is given here. Where a SMILES comes first, the peptide text is derived from it. [ ]: non-standard residue; d: D form. The star is where a group is joined. X3 = NCCOCCOCCOCCOCCOCCOCCOCCOCCCC(=O)*; Stearoyl = CCCCCCCCCCCCCCCCCC(=O)*; Palmitoyl = CCCCCCCCCCCCCCCC(=O)*; X1 = NCCOCCOCCOCCOCCOCCOCCCC(=O)*; X2 = NCCOCCOCCOCCOCCCC(=O)*; Sar = CNCC(=O)O

Experiments:
Rattus norvegicus [1] = assay: Antinociception activity in Oxaliplatin-induced cold allodynia in rat model assessed as analgesic effect at 250 microg/kg, iv measured after 1 to 12 hr; format: functional, organism-based; conditions: dose 250.0 µg/kg, time 1-12 hrs
[2] = biological target: Neuronal acetylcholine receptor; alpha4/beta2 (Homo sapiens) (UniProt P17787+P43681); assay: Inhibition of human alpha4beta2 nAChR expressed in acetylcholine-induced Xenopus laevis oocytes assessed as inhibition of acetylcholine-induced current at 100 nM incubated for 5 mins by two electrode voltage-clamp assay; format: cell-based; conditions: Oocyte
[3] = biological target: T1, Neuronal acetylcholine receptor; alpha9/alpha10 (Homo sapiens) (UniProt Q9UGM1+Q9GZZ6); assay: Inhibition of human alpha9alpha10 nAChR expressed in acetylcholine-induced Xenopus laevis oocytes assessed as inhibition of acetylcholine-induced current at 100 nM incubated for 5 mins by two electrode voltage-clamp assay; format: cell-based; conditions: Oocyte
Rattus norvegicus [4] = assay: Antinociception activity in Oxaliplatin-induced cold allodynia in rat model assessed as analgesic effect at 250 microg/kg, sc measured after 4 to 8 hr; format: functional, organism-based; conditions: dose 250.0 µg/kg, time 4-8 hrs
[5] = biological target: T2, Voltage-dependent N-type calcium channel subunit alpha-1B (Homo sapiens, UniProt Q00975); assay: Inhibition of human eGFP tagged Cav2.2 channel transfected in HEK293T cells co-expressed with human GABAB receptor assessed as inhibition of Cav2.2-mediated Ba2+ current by whole-cell patch clamp assay; format: cell-based
Target sequence in this assay (Q00975 whole entry): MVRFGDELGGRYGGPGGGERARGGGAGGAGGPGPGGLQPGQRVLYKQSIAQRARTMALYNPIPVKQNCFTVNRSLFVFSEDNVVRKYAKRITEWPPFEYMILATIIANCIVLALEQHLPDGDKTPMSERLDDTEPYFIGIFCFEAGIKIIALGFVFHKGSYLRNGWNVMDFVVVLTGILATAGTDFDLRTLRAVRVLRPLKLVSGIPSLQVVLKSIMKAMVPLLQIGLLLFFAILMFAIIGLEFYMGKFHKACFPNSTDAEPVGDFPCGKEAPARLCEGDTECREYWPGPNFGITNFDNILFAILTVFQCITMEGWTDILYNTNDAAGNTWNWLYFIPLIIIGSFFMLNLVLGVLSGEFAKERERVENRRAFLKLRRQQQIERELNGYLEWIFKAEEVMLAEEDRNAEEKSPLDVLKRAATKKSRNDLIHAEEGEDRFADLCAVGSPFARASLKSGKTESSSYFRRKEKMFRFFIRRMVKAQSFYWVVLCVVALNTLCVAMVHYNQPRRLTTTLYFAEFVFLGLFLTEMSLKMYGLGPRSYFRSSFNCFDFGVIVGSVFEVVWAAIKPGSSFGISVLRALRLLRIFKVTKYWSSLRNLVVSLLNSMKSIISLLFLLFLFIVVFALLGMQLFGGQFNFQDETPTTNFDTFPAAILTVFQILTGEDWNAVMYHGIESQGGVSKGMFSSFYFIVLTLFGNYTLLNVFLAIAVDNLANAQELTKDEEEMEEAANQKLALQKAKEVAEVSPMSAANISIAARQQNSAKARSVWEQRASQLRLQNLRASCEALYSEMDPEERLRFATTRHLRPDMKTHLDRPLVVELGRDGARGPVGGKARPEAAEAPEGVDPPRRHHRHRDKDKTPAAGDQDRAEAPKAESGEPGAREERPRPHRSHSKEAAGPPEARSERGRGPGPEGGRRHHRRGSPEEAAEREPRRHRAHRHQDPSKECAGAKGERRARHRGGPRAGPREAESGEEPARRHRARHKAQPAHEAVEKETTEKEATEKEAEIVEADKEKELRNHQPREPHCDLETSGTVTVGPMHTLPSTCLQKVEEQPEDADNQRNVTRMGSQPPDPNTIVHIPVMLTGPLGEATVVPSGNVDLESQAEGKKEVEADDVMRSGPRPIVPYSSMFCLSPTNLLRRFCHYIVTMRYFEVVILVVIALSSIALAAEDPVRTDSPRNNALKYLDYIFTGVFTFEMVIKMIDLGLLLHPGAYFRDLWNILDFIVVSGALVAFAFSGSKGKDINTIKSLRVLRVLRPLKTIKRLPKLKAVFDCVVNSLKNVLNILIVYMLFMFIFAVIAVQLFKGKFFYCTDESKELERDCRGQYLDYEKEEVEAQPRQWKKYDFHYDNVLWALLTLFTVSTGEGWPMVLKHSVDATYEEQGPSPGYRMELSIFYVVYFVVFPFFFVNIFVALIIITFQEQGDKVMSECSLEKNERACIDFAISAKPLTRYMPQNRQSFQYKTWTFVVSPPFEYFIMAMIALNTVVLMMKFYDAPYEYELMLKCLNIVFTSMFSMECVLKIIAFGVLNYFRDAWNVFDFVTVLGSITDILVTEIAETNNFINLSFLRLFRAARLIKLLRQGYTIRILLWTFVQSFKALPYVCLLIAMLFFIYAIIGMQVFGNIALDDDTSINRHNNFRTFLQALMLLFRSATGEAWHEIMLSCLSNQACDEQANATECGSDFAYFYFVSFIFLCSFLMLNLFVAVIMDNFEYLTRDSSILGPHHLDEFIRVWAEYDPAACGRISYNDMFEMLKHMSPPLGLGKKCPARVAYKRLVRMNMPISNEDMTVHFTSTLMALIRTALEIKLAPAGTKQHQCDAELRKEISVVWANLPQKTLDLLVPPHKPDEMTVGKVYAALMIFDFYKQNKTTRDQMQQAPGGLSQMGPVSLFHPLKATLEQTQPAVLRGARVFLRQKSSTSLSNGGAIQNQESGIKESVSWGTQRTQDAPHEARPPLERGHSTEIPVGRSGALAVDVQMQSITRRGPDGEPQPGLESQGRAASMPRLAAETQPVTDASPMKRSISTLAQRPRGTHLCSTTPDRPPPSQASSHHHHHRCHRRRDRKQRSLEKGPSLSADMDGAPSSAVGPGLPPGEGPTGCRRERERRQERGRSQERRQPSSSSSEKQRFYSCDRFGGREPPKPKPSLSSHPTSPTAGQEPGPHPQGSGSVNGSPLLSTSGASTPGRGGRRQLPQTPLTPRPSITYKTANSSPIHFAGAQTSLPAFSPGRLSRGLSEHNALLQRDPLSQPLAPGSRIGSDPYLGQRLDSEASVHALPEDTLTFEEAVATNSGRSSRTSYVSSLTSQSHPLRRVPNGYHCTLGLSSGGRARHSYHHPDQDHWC

[6] = biological target: Neuronal acetylcholine receptor; alpha9/alpha10 (Homo sapiens, UniProt Q9GZZ6+Q9UGM1); assay: Inhibition of human alpha9alpha10 nAChR expressed in acetylcholine-induced Xenopus laevis oocytes assessed as inhibition of acetylcholine-induced current incubated for 5 mins by two electrode voltage-clamp assay; format: cell-based, Oocyte
Chain of Neuronal acetylcholine receptor; alpha9/alpha10 (Q9UGM1 whole entry): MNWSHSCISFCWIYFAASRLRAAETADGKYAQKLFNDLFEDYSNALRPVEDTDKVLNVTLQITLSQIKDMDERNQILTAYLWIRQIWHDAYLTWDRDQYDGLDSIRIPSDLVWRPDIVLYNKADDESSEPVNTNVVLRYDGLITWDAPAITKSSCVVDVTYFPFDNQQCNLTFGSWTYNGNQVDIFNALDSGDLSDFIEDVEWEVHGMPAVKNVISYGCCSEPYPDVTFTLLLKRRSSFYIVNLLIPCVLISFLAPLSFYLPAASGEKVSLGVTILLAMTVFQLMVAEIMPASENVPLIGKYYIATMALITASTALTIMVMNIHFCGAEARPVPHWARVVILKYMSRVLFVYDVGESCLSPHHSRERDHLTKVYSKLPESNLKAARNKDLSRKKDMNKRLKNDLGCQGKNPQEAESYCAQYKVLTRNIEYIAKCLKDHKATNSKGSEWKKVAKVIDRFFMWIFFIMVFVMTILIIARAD
Chain of Neuronal acetylcholine receptor; alpha9/alpha10 (Q9GZZ6 whole entry): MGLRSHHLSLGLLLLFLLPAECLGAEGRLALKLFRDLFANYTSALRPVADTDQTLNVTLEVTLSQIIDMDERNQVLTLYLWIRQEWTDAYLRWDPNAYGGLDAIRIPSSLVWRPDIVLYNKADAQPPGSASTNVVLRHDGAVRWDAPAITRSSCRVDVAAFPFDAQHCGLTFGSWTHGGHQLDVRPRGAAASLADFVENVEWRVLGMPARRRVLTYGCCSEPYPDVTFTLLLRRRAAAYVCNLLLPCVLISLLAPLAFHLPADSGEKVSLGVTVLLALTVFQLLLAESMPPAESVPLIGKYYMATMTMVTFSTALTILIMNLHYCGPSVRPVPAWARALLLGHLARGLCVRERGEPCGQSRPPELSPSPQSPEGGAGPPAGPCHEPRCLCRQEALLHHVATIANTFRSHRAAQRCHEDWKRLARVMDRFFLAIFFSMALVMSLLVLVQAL

[7] = biological target: Neuronal acetylcholine receptor; alpha3/beta2 (Homo sapiens) (UniProt P17787+P32297); assay: Inhibition of human alpha3beta2 nAChR expressed in acetylcholine-induced Xenopus laevis oocytes assessed as inhibition of acetylcholine-induced current at 100 nM incubated for 5 mins by two electrode voltage-clamp assay; format: cell-based; conditions: Oocyte
[8] = biological target: Neuronal acetylcholine receptor; alpha4/beta4 (Homo sapiens) (UniProt P30926+P43681); assay: Inhibition of human alpha4beta4 nAChR expressed in acetylcholine-induced Xenopus laevis oocytes assessed as inhibition of acetylcholine-induced current at 100 nM incubated for 5 mins by two electrode voltage-clamp assay; format: cell-based; conditions: Oocyte
[9] = biological target: Neuronal acetylcholine receptor subunit alpha-7 (Homo sapiens, UniProt P36544); assay: Inhibition of human alpha7 nAChR expressed in acetylcholine-induced Xenopus laevis oocytes assessed as inhibition of acetylcholine-induced current incubated for 5 mins by two electrode voltage-clamp assay; format: cell-based, Oocyte
Chain of Neuronal acetylcholine receptor subunit alpha-7 (P36544 whole entry): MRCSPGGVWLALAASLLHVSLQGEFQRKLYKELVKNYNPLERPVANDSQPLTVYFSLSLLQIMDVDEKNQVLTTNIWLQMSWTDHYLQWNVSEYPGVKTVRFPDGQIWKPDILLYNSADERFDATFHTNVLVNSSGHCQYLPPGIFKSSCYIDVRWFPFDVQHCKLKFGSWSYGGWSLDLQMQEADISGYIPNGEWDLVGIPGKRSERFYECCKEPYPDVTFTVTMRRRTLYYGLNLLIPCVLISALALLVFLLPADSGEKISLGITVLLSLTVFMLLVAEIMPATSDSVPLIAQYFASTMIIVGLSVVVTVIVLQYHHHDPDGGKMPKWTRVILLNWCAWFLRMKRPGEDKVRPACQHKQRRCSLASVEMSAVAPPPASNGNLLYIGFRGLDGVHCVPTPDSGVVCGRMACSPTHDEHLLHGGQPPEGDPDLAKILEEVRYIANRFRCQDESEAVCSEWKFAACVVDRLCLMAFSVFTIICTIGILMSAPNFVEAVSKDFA

[10] = biological target: T1, Neuronal acetylcholine receptor; alpha9/alpha10 (Homo sapiens); assay: Inhibition of human alpha9alpha10 nAChR expressed in acetylcholine-induced Xenopus laevis oocytes assessed as inhibition of acetylcholine-induced current at 30 nM incubated for 5 mins by two electrode voltage-clamp assay; format: cell-based; conditions: Oocyte
Rattus norvegicus [11] = assay: Antinociception activity in Oxaliplatin-induced cold allodynia in rat model assessed as analgesic effect at 250 microg/kg, sc measured after 1 hr; format: functional, organism-based; conditions: dose 250.0 µg/kg
[12] = biological target: T2, Voltage-dependent N-type calcium channel subunit alpha-1B; assay: Inhibition of human eGFP tagged Cav2.2 channel transfected in HEK293T cells co-expressed with human GABAB receptor assessed as inhibition of Cav2.2-mediated Ba2+ current at 100 uM by whole-cell patch clamp assay relative to control; format: cell-based
Target sequence in this assay (Q00975 whole entry, looked up): as the sequence (Q00975 whole entry) above

[13] = biological target: Neuronal acetylcholine receptor; alpha3/beta4 (Homo sapiens) (UniProt P30926+P32297); assay: Inhibition of human alpha3beta4 nAChR expressed in acetylcholine-induced Xenopus laevis oocytes assessed as inhibition of acetylcholine-induced current at 100 nM incubated for 5 mins by two electrode voltage-clamp assay; format: cell-based; conditions: Oocyte
[14] = biological target: T2, Voltage-dependent N-type calcium channel subunit alpha-1B; assay: Inhibition of human eGFP tagged Cav2.2 channel transfected in HEK293T cells co-expressed with human GABAB receptor assessed as inhibition of Cav2.2-mediated Ba2+ current at 100 uM by whole-cell patch clamp assay; format: cell-based
Target sequence in this assay (Q00975 whole entry, looked up): as the sequence (Q00975 whole entry) above

[15] = Stability in human serum measured upto 24 hrs; format: ADME, cell-free
[16] = biological target: T2, Voltage-dependent N-type calcium channel subunit alpha-1B; assay: Inhibition of human eGFP tagged Cav2.2 channel transfected in HEK293T cells co-expressed with human GABAB receptor assessed as inhibition of Cav2.2-mediated Ba2+ current at 1 uM by whole-cell patch clamp assay; format: cell-based
Target sequence in this assay (Q00975 whole entry, looked up): as the sequence (Q00975 whole entry) above

[17] = Stability in human plasma assessed as half life; format: ADME, cell-free
Rattus norvegicus [18] = assay: Antinociceptive activity in Chronic constriction injury rat model assessed as reduction in pain at 250 microg/kg, IM administration and measured after 2 hrs; format: functional, organism-based; conditions: dose 250.0 µg/kg
[19] = Stability in human serum assessed as parent compound remaining measured after 24 hrs; format: ADME, cell-free

**Q.** Which Activity (Rattus norvegicus [1]) does the source give for `CC[C@H](C)[C@H](NC(=O)[C@H](CCCNC(=N)N)NC(=O)[C@H](CCCNC(=N)N)NC(=O)[C@H](Cc1ccc(O)cc1)NC(=O)[C@H](CCCNC(=N)N)NC(=O)[C@H](CCCNC(=N)N)NC(=O)[C@H](CCCNC(=N)N)NC(=O)[C@H](CCCNC(=N)N)NC(=O)[C@H](CC(=O)O)NC(=O)[C@H](Cc1ccc(O)cc1)NC(=O)[C@@H]1CCCN1C(=O)[C@H](CO)NC(=O)[C@H](CCCNC(=N)N)NC(=O)[C@H](Cc1ccc(O)cc1)NC(=O)[C@H](CCCNC(=N)N)NC(=O)CNC)C(=O)N[C@H](C(=O)N[C@@H](CC(=O)O)C(N)=O)[C@@H](C)O` (H-[Sar]RYRSPYDRRRRYRRITD-NH2) here?
**A.** The Activity was “Active”.

**Q.** What about the inhibition [2] of the same molecule?
**A.** Its inhibition is “Active”.

**Q.** What about the inhibition [3] of the same molecule?
**A.** Its inhibition is “inactive”.

**Q.** What about the Activity (Rattus norvegicus [4]) of the same molecule?
**A.** Its Activity is “Active”.

**Q.** What about the IC50 [5] of the same molecule?
**A.** Its IC50 is 7800 nM.

**Q.** What about the IC50 [6] of the same molecule?
**A.** The IC50 was 14.2 nM.

**Q.** And the inhibition [7]?
**A.** Its inhibition is “inactive”.

**Q.** What about the inhibition [8] of the same molecule?
**A.** Its inhibition is “inactive”.

**Q.** What about the IC50 [9] of the same molecule?
**A.** The IC50 was 121 nM.

**Q.** What about the inhibition [10] of the same molecule?
**A.** Its inhibition is “Active”.

**Q.** What about the Activity (Rattus norvegicus [11]) of the same molecule?
**A.** The Activity was “inactive”.

**Q.** What about the inhibition [12] of the same molecule?
**A.** The inhibition was 100%.

**Q.** And the inhibition [13]?
**A.** Its inhibition is “inactive”.

**Q.** For `CCCCCCCCCCCCCCCC(=O)NCC(=O)N[C@@H](CCCNC(=N)N)C(=O)N[C@@H](Cc1ccc(O)cc1)C(=O)N[C@@H](CCCNC(=N)N)C(=O)N[C@@H](CO)C(=O)N1CCC[C@H]1C(=O)N[C@@H](Cc1ccc(O)cc1)C(=O)N[C@@H](CC(=O)O)C(=O)N[C@@H](CCCNC(=N)N)C(=O)N[C@@H](CCCNC(=N)N)C(=O)N[C@@H](CCCNC(=N)N)C(=O)N[C@@H](CCCNC(=N)N)C(=O)N[C@@H](Cc1ccc(O)cc1)C(=O)N[C@@H](CCCNC(=N)N)C(=O)N[C@@H](CCCNC(=N)N)C(=O)N[C@H](C(=O)N[C@H](C(=O)N[C@@H](CC(=O)O)C(N)=O)[C@@H](C)O)[C@@H](C)CC` (Palmitoyl-GRYRSPYDRRRRYRRITD-NH2), which inhibition [14] is on record?
**A.** Its inhibition is “Active; Compound Showed Minimal Activity”.

**Q.** What about the inhibition [10] of the same molecule?
**A.** The inhibition was “inactive”.

**Q.** And the Stability [15]?
**A.** The Stability was “Stable”.

**Q.** What about the inhibition [16] of the same molecule?
**A.** The inhibition was “Active; Compound Showed Weak Inhibitory Activity”.

**Q.** Which half-life [17] does the source give for H-GRYRSPYDRRRRYRRITD-NH2 here?
**A.** Its half-life is < 30 min.

**Q.** Which inhibition [14] does the source give for `CCCCCCCCCCCCCCCCCC(=O)NCC(=O)N[C@@H](CCCNC(=N)N)C(=O)N[C@@H](Cc1ccc(O)cc1)C(=O)N[C@@H](CCCNC(=N)N)C(=O)N[C@@H](CO)C(=O)N1CCC[C@H]1C(=O)N[C@@H](Cc1ccc(O)cc1)C(=O)N[C@@H](CC(=O)O)C(=O)N[C@@H](CCCNC(=N)N)C(=O)N[C@@H](CCCNC(=N)N)C(=O)N[C@@H](CCCNC(=N)N)C(=O)N[C@@H](CCCNC(=N)N)C(=O)N[C@@H](Cc1ccc(O)cc1)C(=O)N[C@@H](CCCNC(=N)N)C(=O)N[C@@H](CCCNC(=N)N)C(=O)N[C@H](C(=O)N[C@H](C(=O)N[C@@H](CC(=O)O)C(N)=O)[C@@H](C)O)[C@@H](C)CC` (Stearoyl-GRYRSPYDRRRRYRRITD-NH2) here?
**A.** The inhibition was “Active; Compound Showed Minimal Activity”.

**Q.** And the inhibition [10]?
**A.** Its inhibition is “inactive”.

**Q.** What about the Stability [15] of the same molecule?
**A.** Its Stability is “Stable”.

**Q.** What about the inhibition [16] of the same molecule?
**A.** Its inhibition is “Active; Compound Showed Weak Inhibitory Activity”.

**Q.** Which results are given for `CC[C@H](C)[C@H](NC(=O)[C@H](CCCNC(=N)N)NC(=O)[C@H](CCCNC(=N)N)NC(=O)[C@H](Cc1ccc(O)cc1)NC(=O)[C@H](CCCNC(=N)N)NC(=O)[C@H](CCCNC(=N)N)NC(=O)[C@H](CCCNC(=N)N)NC(=O)[C@H](CCCNC(=N)N)NC(=O)[C@H](CC(=O)O)NC(=O)[C@H](Cc1ccc(O)cc1)NC(=O)[C@@H]1CCCN1C(=O)[C@H](CO)NC(=O)[C@H](CCCNC(=N)N)NC(=O)[C@H](Cc1ccc(O)cc1)NC(=O)[C@H](CCCNC(=N)N)NC(=O)CNC(=O)CCCOCCOCCOCCOCCN)C(=O)N[C@H](C(=O)N[C@@H](CC(=O)O)C(N)=O)[C@@H](C)O` (X2-GRYRSPYDRRRRYRRITD-NH2)?
**A.** Activity (Rattus norvegicus [18]): inactive; IC50 [6]: 7.8 nM; inhibition [14]: Active; Compound Showed Minimal Activity; inhibition [10]: Active; remaining at 24 h [19]: > 80%; inhibition [16]: Active; Compound Showed Weak Inhibitory Activity

**Q.** With `CC[C@H](C)[C@H](NC(=O)[C@H](CCCNC(=N)N)NC(=O)[C@H](CCCNC(=N)N)NC(=O)[C@H](Cc1ccc(O)cc1)NC(=O)[C@H](CCCNC(=N)N)NC(=O)[C@H](CCCNC(=N)N)NC(=O)[C@H](CCCNC(=N)N)NC(=O)[C@H](CCCNC(=N)N)NC(=O)[C@H](CC(=O)O)NC(=O)[C@H](Cc1ccc(O)cc1)NC(=O)[C@@H]1CCCN1C(=O)[C@H](CO)NC(=O)[C@H](CCCNC(=N)N)NC(=O)[C@H](Cc1ccc(O)cc1)NC(=O)[C@H](CCCNC(=N)N)NC(=O)CNC(=O)CCCOCCOCCOCCOCCOCCOCCN)C(=O)N[C@H](C(=O)N[C@@H](CC(=O)O)C(N)=O)[C@@H](C)O` (X1-GRYRSPYDRRRRYRRITD-NH2) as the molecule, how does the Activity (Rattus norvegicus [18]) read?
**A.** Its Activity is “inactive”.

**Q.** And the IC50 [6]?
**A.** Its IC50 is 15.9 nM.

**Q.** What about the inhibition [14] of the same molecule?
**A.** The inhibition was “Active; Compound Showed Minimal Activity”.

**Q.** What about the inhibition [10] of the same molecule?
**A.** Its inhibition is “Active”.

**Q.** What about the remaining at 24 h [19] of the same molecule?
**A.** Its remaining at 24 h is > 80%.

**Q.** And the inhibition [16]?
**A.** Its inhibition is “Active; Compound Showed Weak Inhibitory Activity”.

**Q.** Which Activity (Rattus norvegicus [18]) does the source give for `CC[C@H](C)[C@H](NC(=O)[C@H](CCCNC(=N)N)NC(=O)[C@H](CCCNC(=N)N)NC(=O)[C@H](Cc1ccc(O)cc1)NC(=O)[C@H](CCCNC(=N)N)NC(=O)[C@H](CCCNC(=N)N)NC(=O)[C@H](CCCNC(=N)N)NC(=O)[C@H](CCCNC(=N)N)NC(=O)[C@H](CC(=O)O)NC(=O)[C@H](Cc1ccc(O)cc1)NC(=O)[C@@H]1CCCN1C(=O)[C@H](CO)NC(=O)[C@H](CCCNC(=N)N)NC(=O)[C@H](Cc1ccc(O)cc1)NC(=O)[C@H](CCCNC(=N)N)NC(=O)CNC(=O)CCCOCCOCCOCCOCCOCCOCCOCCOCCN)C(=O)N[C@H](C(=O)N[C@@H](CC(=O)O)C(N)=O)[C@@H](C)O` (X3-GRYRSPYDRRRRYRRITD-NH2) here?
**A.** The Activity was “inactive”.

**Q.** What about the IC50 [6] of the same molecule?
**A.** The IC50 was 11.8 nM.

**Q.** What about the inhibition [14] of the same molecule?
**A.** Its inhibition is “Active; Compound Showed Minimal Activity”.

**Q.** And the inhibition [10]?
**A.** Its inhibition is “Active”.

**Q.** What about the remaining at 24 h [19] of the same molecule?
**A.** The remaining at 24 h was > 80%.

**Q.** What about the inhibition [16] of the same molecule?
**A.** Its inhibition is “Active; Compound Showed Weak Inhibitory Activity”.
